We go through four compounds from PMC6214108, “Synthesis and In Vitro Antitumor Activity of Novel Bivalent β-Carboline-3-carboxylic Acid Derivatives with DNA as a Potential Target” (International Journal of Molecular Sciences, 2018).

One test concerns A549 cells. The test can be described thus: Hoechst 33342/PI dual staining, morphological observation of apoptosis. It counts as cell-based. The conditions noted are these: A549, 48 h, 8 μM (Figure 1 legend; method says 4 μM). Here is the method: The morphological observation of apoptosis was performed by Hoechst 33342 and propidium iodide (PI) dual staining according to the manufacturer’s instructions. A549 cells (2 × 10^4 cells per well) seeded into 24-well plates (JET, Guangzhou, China) were incubated with DMEM containing 4 μM of β-carbolines (4B, 6i, 4D, and 6u) for 48 h at 37 °C and 5% CO2. Then, the cells were stained by Hoechst 33342 and PI at 37 °C for 30 min in dark conditions. Finally, cells were observed and photographed with a fluorescence microscope (LeicaDM6B, Leica, Nussloch, Germany).
Figure 1 Morphological observation was performed by Hoechst 33342/propidium iodide (PI) dual staining. A549 cells were treated with 4B, 6i, 4D, and 6u at 8 μM for 48 h, and then stained with Hoechst 33342 and PI at 37 °C in dark conditions. The stained cells were observed under a fluorescence microscope (Leica DM6B, Leica, Nussloch, Germany). Hoechst 33342 was used to stain the living and apoptotic nuclei, and emitted blue fluorescence (upper). PI was used to stain the dead nuclei and emitted red fluorescence (lower).

Test [1] concerns A549 (lung carcinoma) cell line. Description: MTT cytotoxicity assay, A549. It counts as cell-based. The conditions noted are these: Homo sapiens, 48 h, mean of three independent experiments, read-out: IC50 (μM) Mean ± SD, A549. Here is the method:
(§1) All cell lines (A549, SGC-7901, Hela, SMMC-7721, and MCF-7) were purchased from the American Type Culture Collection (Manassas, VA, USA), and were cultured in Dulbecco’s modified Eagle’s medium (DMEM, HycloneLaboratories Inc., Logan, Utah, USA) supplemented with 10% fetal bovine serum (FBS, Gibco&Invitrogen, Carlsbad, CA, USA) at 37 °C and 5% CO2.
(§2) The cytotoxic activities of β-carboline-3-carboxylic acid derivatives were investigated by the MTT method, as previously described. Cells (1 × 10^4 cells per well) seeded into 96-well plates (JET, Guangzhou, China) were incubated with DMEM containing various concentrations (2.5, 5, 10, 20, 40, and 80 μM) of β-carbolines (4A, 4B, 4C, 4D, 6a-6f, 6g-6l, 6m-6r, and 6s-6x) for 48 h at 37 °C and 5% CO2. Then, 10 µL of 5 mg/mL MTT reagent dissolved in PBS (Phosphate buffered saline) was added per well, and plates were incubated at 37 °C for 4 h. The medium was carefully removed and 100 µL dimethyl sulfoxide (DMSO) was added to dissolve the formazan crystals. The absorbance was measured at 490 nm with a microplate reader (ThermoFisher Scientific Inc., Waltham, MA, USA). The β-carbolines were dissolved in DMSO as stock solutions (10 mM) at −20 °C, and diluted in the final experimental solution using DMEM before use. A549 (lung carcinoma), SGC-7901 (gastric carcinoma), Hela (cervical carcinoma), SMMC-7721 (liver carcinoma), and MCF-7 (breast carcinoma) cell lines were used for the antitumor activity screening. The IC50 values were the mean values of three independent experiments.
For orientation: Tetrazolium dyes change colour on reduction, which living cells bring about.

Test [2] concerns MRC5 (normal lung cell) cell line. The test can be described thus: MTT cytotoxicity assay, MRC5. The format is cell-based. The following applies: Homo sapiens, 48 h. Here is the method: [The procedure below names another cell line; the source lists this cell line under the same test.] as §2
Test [3] concerns SGC-7901 (gastric carcinoma) cell line. The test can be described thus: MTT cytotoxicity assay, SGC-7901. It counts as cell-based. The following applies: Homo sapiens, 48 h, mean of three independent experiments, read-out: IC50 (μM) Mean ± SD, SGC-7901. Here is the method: as §1, §2
The subject of test [4] is Hela (cervical carcinoma) cell line. The test can be described thus: MTT cytotoxicity assay, Hela. It counts as cell-based. The following applies: Homo sapiens, 48 h, mean of three independent experiments, read-out: IC50 (μM) Mean ± SD, Hela. Here is the method:
as §1, §2

In another test the test system is CT DNA. The test can be described thus: Thermal denaturation study with CT DNA. It counts as binding, calf. The following applies: β-carboline/DNA ratio of 0.5, pH 7.4. Here is the method:
The DNA-binding modes of the β-carboline derivatives (4B, 6i, 4D, and 6u) with CT DNA were examined by DNA thermal denaturation experiments, as previously described. The solutions containing complexes of CT DNA and 4B, 6i, 4D, or 6u were heated using a thermostatic water bath, and the absorbance was measured in 1 °C steps from 30 °C to 95 °C at 260 nm (At) by a UV-Vis spectrophotometer (A is the absorbance of the solution at 260 nm at different temperatures, t is the temperature). The experiments were performed in PE buffer (pH = 7.4) with a β-carboline/DNA ratio of 0.5. The ΔTm value of DNA alone is 56.8 °C. ΔTm = ΔTm^(DNA + 4B, 6i, 4D, or 6u) − ΔTm^(DNA alone).
Figure 6 Thermal denaturation study of the complexes of β-carbolines (4B, 6i, 4D, and 6u) and CT-DNA. Melting temperatures were measured in PBS-EDTA buffer (1 mM Na2HPO4, 0.1 mM EDTA, PH 7.4) with a β-carboline (4B, 6i, 4D, and 6u)/DNA ratio of 0.5. ΔTm = (ΔTm^4B,6i,4D, or 6u + DNA − ΔTm^DNA).

In test [5] the test system is MCF-7 (breast carcinoma) cell line. Description: MTT cytotoxicity assay, MCF-7. It counts as cell-based. The conditions noted are these: Homo sapiens, MCF7, 48 h, mean of three independent experiments, read-out: IC50 (μM) Mean ± SD, MCF-7. Here is the method:
as §1, §2

For orientation: IC50 means the midpoint of a concentration-inhibition curve. What is called ΔTm is the shift of the melting midpoint relative to a reference. As to `O=C(OCCCCCOC(=O)c1cc2c3ccccc3n(Cc3ccccc3F)c2cn1)c1cc2c3ccccc3n(Cc3ccccc3F)c2cn1` [Compound 6u], the “Morphological observation of cell apoptosis (Hoechst 33342/PI)” value (from here on “Morphological observation”) with A549 cells is “could induce cell apoptosis and further cell necrosis”. Moreover, the IC50 in test [1] was 5.61 ± 0.04 µM; in test [2], 39.89 ± 0.05 µM; in test [3], 5.86 ± 0.08 µM; in test [4], 14.6 ± 0.36 µM; in test [5] it was 36 ± 2.99 µM. Besides, in the test on CT DNA, the ΔTm came out at 9.0 °C.
On to `Cc1ccccc1Cn1c2ccccc2c2cc(C(=O)OCCCCCOC(=O)c3cc4c5ccccc5n(Cc5ccccc5C)c4cn3)ncc21` [Compound 6i], for which the “Morphological observation” value in the test on A549 cells was “could induce cell apoptosis and further cell necrosis”. For the same compound, the IC50 in test [1] is 6.93 ± 0.33 µM; in test [2], 37.99 ± 0.1 µM; in test [3], 7.18 ± 0.01 µM; in test [4], 9.88 ± 0.04 µM; in test [5] it was 59.3 ± 5.86 µM. Besides, the ΔTm in the test on CT DNA was 8.5 °C.
Consider `COC(=O)c1cc2c3ccccc3n(Cc3ccccc3C)c2cn1` [Compound 4B], for which, in the test with A549 cells, the “Morphological observation” value is listed as “could only induce cell apoptosis in a dose-dependent manner”. Further, the IC50 in test [1] was 39.2 ± 1.18 µM; in test [2], 51.78 ± 0.1 µM; in test [3] it was 42.3 ± 2.13 µM; in test [4] it was 31.3 ± 2.33 µM; in test [5] it was greater than 80 µM. Besides, in the test on CT DNA, the ΔTm was 7.5 °C.
With `COC(=O)c1cc2c3ccccc3n(Cc3ccccc3F)c2cn1` [Compound 4D], in the test on A549 cells, the “Morphological observation” value was “could induce cell apoptosis and further cell necrosis”. The IC50 in test [1] came to 13.94 ± 0.07 µM; in test [2], 35.38 ± 0.01 µM; in test [3] it was 17.8 ± 0.66 µM; in test [4], 26.4 ± 1.33 µM; in test [5], 53.9 ± 2.02 µM. Also, the ΔTm in the test with CT DNA amounted to 3.5 °C.
